Laboratory results from patent US20050113367A1, “Pharmaceutical composition” (SANKYO COMPANY, LIMITED, priority 2000, published 2005).

Test system: spontaneously hypertensive rats (SHRs)
Assay: Hypotensive effects elicited by co-administration of CS-866 and hydrochlorothiazide (telemetry blood pressure in SHRs)
Type: in vivo, rat
Details: male SHRs, in mmHg (unit assumed)
Source text: Hypotensive Effects Elicited by Co-Administration of CS-866 and Hydrochlorothiazide
Twenty-eight male spontaneously hypertensive rats aged 20 weeks (SHRs, SPF grade, purchased from Hoshino Laboratory Animals) were used. A transmitter of a telemeter (TA11PA-C40, DATA SCIENCES Inc.) was implanted in each SHR for recording blood pressure. After recovery from the surgical operations, blood pressure was monitored in the rats from the age of 24 weeks. The rats were orally given 0.5% carboxymethylceflulose solution (CMC, 2 ml/kg) for 7 successive days (once daily) by gavage. They were divided into 4 groups (7 SHRs per group) so as to give equally averaged blood pressure levels in the groups based on the blood pressure recorded on the 5th and 6th days after the CMC solution was initiated. The rats were orally treated with 0.5% CMC solution (2 ml/kg, control group) or test substance suspended in 0.5% CMC solution (2 ml/kg) for 14 successive days (once daily). Blood pressure was monitored 1 day prior to the drug administration and on the 7th and 14th days after the drug was initiated. The group composition, test substances, doses and blood pressure (the 24 hour mean blood pressure A standard error on the respective monitoring days) are summarized in Tables 1 and 2.
The test substances were hydrochlorothiazide (HCTZ), CS-866, and HCTZ and CS-866. HCTZ was prepared so as to be 10 mg/2 ml of final concentration with 0.5% CMC solution. CS-866 was suspended in 0.5% CMC solution so as to be at a final concentration of 1 mg/2 ml. CS-866 and HCTZ solution was prepared so as to be at a final concentration of [10 mg (HCTZ)+1 mg (CS-866)]/2 ml with 0.5% CMC solution.

[1] = 7th day after administration, oral once daily, HCTZ 10 mg/kg, CS-866 1 mg/kg, or both
[2] = 14th day after administration, oral once daily, HCTZ 10 mg/kg, CS-866 1 mg/kg, or both
[3] = 1 day before administration (baseline), oral, once daily, n=7 per group

CCCc1nc(C(C)(C)O)c(C(=O)OCc2oc(=O)oc2C)n1Cc1ccc(-c2ccccc2-c2nnn[nH]2)cc1 [CS-866, (5-methyl-2-oxo-1,3-dioxolen-4-yl)methyl 4-(1-hydroxy-1-methylethyl)-2-propyl-1-[2′-(1H-tetrazol-5-yl)biphenyl-4-ylmethyl]imidazol-5-carboxylate]
Blood pressure levels (24 hour mean blood pressure ± standard error) [1]: 147 ± 4
Blood pressure levels (24 hour mean blood pressure ± standard error) [2]: 148 ± 4
Blood pressure levels (24 hour mean blood pressure ± standard error) [3]: 167 ± 6

NS(=O)(=O)c1cc2c(cc1Cl)NCNS2(=O)=O [HCTZ, 6-chloro-3,4-dihydro-2H-1,2,4,-benzothiadiazin-7-sulfonamide 1,1-dioxide]
Blood pressure levels (24 hour mean blood pressure ± standard error) [1]: 152 ± 6
Blood pressure levels (24 hour mean blood pressure ± standard error) [2]: 156 ± 6
Blood pressure levels (24 hour mean blood pressure ± standard error) [3]: 165 ± 6
